Assay results from US20240025919A1, “AZA-TETRACYCLIC OXAZEPINE COMPOUNDS AND USES THEREOF” (Genentech, Inc., priority 2022, published 2024).

Experiments:
KRAS G12D = KRAS G12D (Homo sapiens (Human), UniProt P01116, G12D); test: KRAS G12D LoEnz Biochemical Assay, BODIPY-GDP Exchange TR-FRET (SOS1-mediated nucleotide exchange); details: read-out: KRas (G12D) GDP HTRF IC50
Experimental: Example 500: KRAS G12D LoEnz Biochemical Assay, BODIPY-GDP Exchange TR-FRET. Biochemical compound potencies are assessed by evaluating inhibition of SOS1I-mediated nucleotide exchange in KRAS G121D. In this assay, the SOS1-promoted exchange of fluorescently-labeled GDP (BOPIDY-GDP) is monitored by time-resolved fluorescence resonance energy transfer (TR-FRET). Compounds solubilized in DMS0 are dispensed as concentration series into 384-well white assay plates. A preformed complex of biotin-tagged recombinant human KRAS (0.06 nM mutant G1 2D) and 0.06 nM terbium-labeled streptavidin (CisBIO) prepared in 10 uL/well assay buffer (20 mM HEPES, pH 7.5, 50 mM NaCl, 10 mMMMgCl2, 0.0100 Tween-20 and 1 mM dithiothreitol) is added and allowed to incubate for 10-minutes at room temperature. The reaction is initiated with the addition of 5 uL 300 nM recombinant human SOS1 and 300 nM BODIPY-GDP in assay buffer. After a 120-minute incubation, the fluorescence is measured with excitation at 337 nm and emission at 490 and 520 nm. The TR-FRET ratio is determined as the fluorescence at 520 nm divided by the fluorescence at 490 nm multiplied by 10,000. The results are normalized to percent inhibition based on control samples: DMSO (0% inhibition) and control compound at a concentration that inhibits completely (100% inhibition). The normalized TR-FRET results are plotted against compound concentration, and the data are fit to a 4-parameter Hill equation to determine the IC50 values.

KRAS WT = KRAS WT (Homo sapiens (Human), UniProt P01116); test: KRAS WT Biochemical Assay, BODIPY-GDP Exchange TR-FRET (Example 501; 3 nM KRAS WT, 3 nM SOS1, 60-minute incubation); details: read-out: KRas HTRF IC50
Sequence of KRAS WT (P01116-2 other isoform, or with tags, fused parts or gaps): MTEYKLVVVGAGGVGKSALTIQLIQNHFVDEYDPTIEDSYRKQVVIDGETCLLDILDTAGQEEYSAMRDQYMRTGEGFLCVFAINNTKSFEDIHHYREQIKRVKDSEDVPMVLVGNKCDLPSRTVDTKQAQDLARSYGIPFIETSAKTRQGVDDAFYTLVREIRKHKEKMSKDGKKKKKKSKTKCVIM
Experimental: Example 501: KRAS WT Biochemical Assay, BODIPY-GDP Exchange TR-FRET. Biochemical compound potencies are assessed by evaluating inhibition of SOS1-mediated nucleotide exchange in KRAS WT. In this assay, the SOS1-promoted exchange of fluorescently-labeled GDP (BOPIDY-GDP) is monitored by time-resolved fluorescence resonance energy transfer (TR-FRET). Compounds solubilized in DMSO are dispensed as concentration series into 384-well white assay plates, and 5 uL assay buffer (20 mM HEPES, pH 7.5, 50 mM NaCl, 10 mM MgCl2, 0.01% Tween-20 and 1 mM dithiothreitol) is added just prior to the start of the assay. A preformed complex of 3 nM biotin-tagged recombinant human KRAS WT and 0.3 nM terbium-labeled streptavidin (CisBIO) prepared in 5 uL/well assay buffer is added and allowed to incubate for 10-minutes at room temperature. The reaction is initiated with the addition of 5 uL 3 nM recombinant human SOS1 and 300 nM BODIPY-GDP in assay buffer. After a 60-minute incubation, the fluorescence is measured with excitation at 337 nm and emission at 490 and 520 nm. The TR-FRET ratio is determined as the fluorescence at 520 nm divided by the fluorescence at 490 nm multiplied by 10,000. The results are normalized to percent inhibition based on control samples: DMSO (0% inhibition) and control compound at a concentration that inhibits completely (100% inhibition). The normalized TR-FRET results are plotted against compound concentration, and the data are fit to a 4-parameter Hill equation to determine the IC50 values.

Sequence of KRAS G12D (P01116-2 other isoform, or with tags, fused parts or gaps G12D): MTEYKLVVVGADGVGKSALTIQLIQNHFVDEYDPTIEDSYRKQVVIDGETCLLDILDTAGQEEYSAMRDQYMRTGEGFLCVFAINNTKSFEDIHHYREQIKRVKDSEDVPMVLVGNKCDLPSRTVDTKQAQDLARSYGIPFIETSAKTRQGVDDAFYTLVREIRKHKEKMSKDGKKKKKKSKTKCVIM

**Q.** Which IC50 (KRAS G12D) does the source give for `Cc1nc(N)cc(-c2nc3c4c(nc(OC[C@@]56CCCN5C[C@H](F)C6)nc4c2F)N2C[C@H]4CC[C@H](N4)[C@H]2[C@H](C)O3)c1CC(F)F` [Compound 189, 5-(2,2-Difluoroethyl)-4-((5S,5aS,6S,9R)-1-fluoro-12-(((2R,7aS)-2-fluorotetrahydro-1H-pyrrolizin-7a(5H)-yl)methoxy)-5-methyl-5a,6,7,8,9,10-hexahydro-5H-4-oxa-3,10a,11,13,14-pentaaza-6,9-methanonaphtho[1,8-ab]heptalene-2-yl)-6-methylpyridin-2-amine] here?
**A.** The IC50 was 2.31 nM.

**Q.** And the IC50 (KRAS WT)?
**A.** The IC50 was 252 nM.

**Q.** For `Cc1nc(N)c(F)c(-c2nc3c4c(nc(OC[C@@]56CCCN5C[C@H](F)C6)nc4c2F)N2C[C@H]4CC[C@H](N4)[C@H]2[C@H](C)O3)c1C(F)(F)F` [Compound 194, 3-Fluoro-4-((5S,5aS,6S,9R)-1-fluoro-12-(((2R,7aS)-2-fluorotetrahydro-1H-pyrrolizin-7a(5H)-yl)methoxy)-5-methyl-5a,6,7,8,9,10-hexahydro-5H-4-oxa-3,10a,11,13,14-pentaaza-6,9-methanonaphtho[1,8-ab]heptalen-2-yl)-6-methyl-5-(trifluoromethyl)pyridin-2-amine], which IC50 (KRAS G12D) is on record?
**A.** The IC50 was 0.42 nM.

**Q.** What about the IC50 (KRAS WT) of the same compound?
**A.** The IC50 was 28.9 nM.

**Q.** How did the IC50 (KRAS G12D) turn out when `Cc1c(F)ccc(-c2nc3c4c(nc(OC[C@@]56CCCN5C[C@H](F)C6)nc4c2F)N2C[C@H]4CC[C@H](N4)[C@H]2[C@H](C)O3)c1C(F)(F)F` [Compound 203, (5S,5aS,6S,9R)-1-fluoro-2-(4-fluoro-3-methyl-2-(trifluoromethyl)phenyl)-12-(((2R,7aS)-2-fluorotetrahydro-1H-pyrrolizin-7a(5H)-yl)methoxy)-5-methyl-5a,6,7,8,9,10-hexahydro-5H-4-oxa-3,10a,11,13,14-pentaaza-6,9-methanonaphtho[1,8-ab]heptalene] was run?
**A.** The IC50 was 26.8 nM.

**Q.** And the IC50 (KRAS WT)?
**A.** The IC50 was 1590 nM.

**Q.** Which IC50 (KRAS G12D) does the source give for `C#Cc1cccc2cc(O)cc(-c3nc4c5c(nc(OC[C@@]67CCCN6C[C@H](F)C7)nc5c3F)N3C[C@H]5CC[C@H](N5)[C@H]3[C@H](C(F)(F)F)O4)c12` [Compound 251, 5-Ethynyl-4-((5R,5aS,6S,9R)-1-fluoro-12-(((2R,7aS)-2-fluorotetrahydro-1H-pyrrolizin-7a(5H)-yl)methoxy)-5-(trifluoromethyl)-5a,6,7,8,9,10-hexahydro-5H-4-oxa-3,10a,11,13,14-pentaaza-6,9-methanonaphtho[1,8-ab]heptalene-2-yl)naphthalen-2-ol] here?
**A.** The IC50 was 0.16 nM.

**Q.** What about the IC50 (KRAS WT) of the same compound?
**A.** The IC50 was 1.05 nM.

**Q.** With `Cc1c(F)c(N)cc(-c2nc3c4c(nc(OC[C@@H]5CC[C@H]6COCCN65)nc4c2F)N2C[C@H]4CC[C@H](N4)[C@H]2[C@H](C(F)(F)F)O3)c1C(F)(F)F` [Compound 245, 2-Fluoro-5-((5R,5aS,6S,9R)-1-fluoro-12-(((6S,8aS)-hexahydro-1H-pyrrolo[2,1-c][1,4]oxazin-6-yl)methoxy)-5-(trifluoromethyl)-5a,6,7,8,9,10-hexahydro-5H-4-oxa-3,10a,11,13,14-pentaaza-6,9-methanonaphtho[1,8-ab]heptalene-2-yl)-3-methyl-4-(trifluoromethyl)aniline] as the compound, how does the IC50 (KRAS G12D) read?
**A.** Its IC50 is 0.249 nM.

**Q.** And the IC50 (KRAS WT)?
**A.** The IC50 was 7.44 nM.

**Q.** How did the IC50 (KRAS G12D) turn out when `Cc1cc(N)cc(-c2nc3c4c(nc(OC[C@@H]5CC[C@H]6COCCN65)nc4c2F)N2C[C@H]4CC[C@H](N4)[C@H]2[C@H](C)O3)c1CC(F)F` [Compound 230, 4-(2,2-Difluoroethyl)-3-((5S,5aS,6S,9R)-1-fluoro-12-(((6S,8aS)-hexahydro-1H-pyrrolo[2,1-c][1,4]oxazin-6-yl)methoxy)-5-methyl-5a,6,7,8,9,10-hexahydro-5H-4-oxa-3,10a,11,13,14-pentaaza-6,9-methanonaphtho[1,8-ab]heptalen-2-yl)-5-methylaniline] was run?
**A.** The IC50 was 1.13 nM.

**Q.** And the IC50 (KRAS WT)?
**A.** The IC50 was 213 nM.

**Q.** With `Cc1nc(N)cc(-c2nc3c4c(nc(OCC5(CN6CC7COCC(C6)C7(F)F)CC5)nc4c2F)N2C[C@H]4CC[C@H](N4)[C@H]2[C@H](C)O3)c1C(F)(F)F` [Compound 266, 4-((5S,5aS,6S,9R)-12-((1-((9,9-difluoro-3-oxa-7-azabicyclo[3.3.1]nonon-7-yl)methyl)cyclopropyl)methoxy)-1-fluoro-5-methyl-5a,6,7,8,9,10-hexahydro-5H-4-oxa-3,10a,11,13,14-pentaaza-6,9-methanonaphtho[1,8-ab]heptalene-2-yl)-6-methyl-5-(trifluoromethyl)pyridin-2-amine] as the compound, how does the IC50 (KRAS WT) read?
**A.** Its IC50 is 1100 nM.

**Q.** Which IC50 (KRAS G12D) does the source give for `Cc1c(Cl)c(N)cc(-c2nc3c4c(nc(OC[C@@]56CCCN5C[C@H](F)C6)nc4c2F)N2C[C@H]4CC[C@H](N4)[C@H]2[C@H](C)O3)c1C(F)(F)F` (single isomer, unassigned) [Compound 200] here?
**A.** Its IC50 is 0.1 nM.

**Q.** For `Cc1cc(N)c(F)c(-c2nc3c4c(ncnc4c2Cl)N2C[C@H]4CC[C@H](N4)[C@H]2[C@H](C)O3)c1C(F)(F)F` (atropisomer, axis not shown) [Compound 95, 3-((5S,5aS,6S,9R)-1-chloro-5-methyl-5a,6,7,8,9,10-hexahydro-5H-4-oxa-3,10a,11,13,14-pentaaza-6,9-methanonaphtho[1,8-ab]heptalen-2-yl)-2-fluoro-5-methyl-4-(trifluoromethyl)aniline], which IC50 (KRAS G12D) is on record?
**A.** Its IC50 is 26.6 nM.

**Q.** For `Cc1c(F)c(N)cc(-c2nc3c4c(nc(OC[C@H]5CC[C@@H]6C(=O)N(C)CCN56)nc4c2F)N2C[C@H]4CC[C@H](N4)[C@H]2[C@H](C)O3)c1C(F)(F)F` (relative stereo) [Compound 123, 6-((((5S,5aS,6S,9R)-2-(5-Amino-4-fluoro-3-methyl-2-(trifluoromethyl)phenyl)-1-fluoro-5-methyl-5a,6,7,8,9,10-hexahydro-5H-4-oxa-3,10a,11,13,14-pentaaza-6,9-methanonaphtho[1,8-ab]heptalen-12-yl)oxy)methyl)-2-methylhexahydropyrrolo[1,2-a]pyrazin-1(2H)-one], which IC50 (KRAS G12D) is on record?
**A.** The IC50 was 0.7 nM.

**Q.** For `Cc1c(F)c(N)cc(-c2nc3c4c(nc(OC[C@@]56CCCN5C[C@H](F)C6)nc4c2F)N2C[C@H]4CC[C@H](N4)[C@H]2[C@@H](C(F)(F)F)O3)c1C(F)(F)F` [Compound 246, 2-Fluoro-5-((5S,5aS,6S,9R)-1-fluoro-12-(((2R,7aS)-2-fluorotetrahydro-1H-pyrrolizin-7a(5H)-yl)methoxy)-5-(trifluoromethyl)-5a,6,7,8,9,10-hexahydro-5H-oxa-3,10a,11,13,14-pentaaza-6,9-methanonaphtho[1,8-ab]heptalene-2-yl)-3-methyl-4-(trifluoromethyl)aniline], which IC50 (KRAS WT) is on record?
**A.** The IC50 was 1200 nM.

**Q.** How did the IC50 (KRAS G12D) turn out when `Cc1cc(N)c(Cl)c(-c2nc3c4c(nc(OC[C@@]56CCCN5C[C@H](F)C6)nc4c2F)N2C[C@H]4CC[C@H](N4)[C@H]2[C@H](C)O3)c1C(F)(F)F` [Compound 199, 2-Chloro-3-((5S,5aS,6S,9R)-1-fluoro-12-(((2R,7aS)-2-fluorotetrahydro-1H-pyrrolizin-7a(5H)-yl)methoxy)-5-methyl-5a,6,7,8,9,10-hexahydro-5H-4-oxa-3,10a,11,13,14-pentaaza-6,9-methanonaphtho[1,8-ab]heptalen-2-yl)-5-methyl-4-(trifluoromethyl)aniline] was run?
**A.** The IC50 was 0.17 nM.

**Q.** With `C[C@@H]1Oc2nc(-c3cc(N)cc(F)c3C(F)(F)F)c(F)c3nc(OC[C@H]4CC[C@@H]5COC(C)(C)CN45)nc(c23)N2C[C@H]3CC[C@H](N3)[C@@H]12` (relative stereo) [Compound 125, 3-((5S,5aS,6S,9R)-12-((3,3-dimethylhexahydro-1H-pyrrolo[2,1-c][1,4]oxazin-6-yl)methoxy)-1-fluoro-5-methyl-5a,6,7,8,9,10-hexahydro-5H-4-oxa-3,10a,11,13,14-pentaaza-6,9-methanonaphtho[1,8-ab]heptalen-2-yl)-5-fluoro-4-(trifluoromethyl)aniline] as the compound, how does the IC50 (KRAS G12D) read?
**A.** The IC50 was 0.23 nM.
